Data published in patent US4440933A, “Process for preparing 1,2,5-thiadiazoles” (Bristol-Myers Company, priority 1983, dated 1984).
Read-outs that look alike come from different tables or passages of the source.

Tests used:
gastric acid secretion = experiment: Gastric antisecretory activity in the gastric fistula rat; assay type: in vivo, rat (male Long Evans); details: sc, read-out: ED50 sc
histamine H2-receptor = target: T1, histamine H2-receptor (Cavia porcellus, UniProt P47747); details: Black et al., Nature, 236, 385 (1972); cited from earlier work
T1 construct: The spontaneously beating right atrium was dissected free from other tissues; from tissue; host or cells: isolated spontaneously beating right atrium of male Hartley strain guinea pigs
T1 sequence (P47747 whole entry): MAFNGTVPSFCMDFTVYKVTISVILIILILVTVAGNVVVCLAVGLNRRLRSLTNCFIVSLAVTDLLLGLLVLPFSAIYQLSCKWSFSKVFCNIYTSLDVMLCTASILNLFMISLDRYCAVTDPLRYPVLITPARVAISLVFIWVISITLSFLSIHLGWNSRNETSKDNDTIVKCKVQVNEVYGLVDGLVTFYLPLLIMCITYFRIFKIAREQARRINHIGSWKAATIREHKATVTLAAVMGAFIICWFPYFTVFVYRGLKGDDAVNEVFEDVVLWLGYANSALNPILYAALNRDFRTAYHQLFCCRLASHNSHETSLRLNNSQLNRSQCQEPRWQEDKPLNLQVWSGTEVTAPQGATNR

peptic ulcer disease = details: clinical evaluation, Gray et al., Lancet, 1, 8001 (1977); cited from earlier work

SMILES | ED50 (gastric acid secretion; gastric fistula rat) | other results
Nc1nsnc1NCCCOc1cccc(CN2CCCCC2)c1 [Example 3, 3-Amino-4-[3-(3-piperidinomethylphenoxy)propylamino]-1,2,5-thiadiazole] | 0.094 µmol/kg | 
Nc1nsnc1NCCCOc1cccc(CN2CCCC2)c1 [Example 4, 3-Amino-4-[3-(3-pyrrolidinomethylphenoxy)propylamino]-1,2,5-thiadiazole] | 0.18 µmol/kg | 
CN(C)Cc1ccc(CSCCNc2nsnc2N)o1 [Example 10, 3-amino-4-{2-[(5-dimethylaminomethyl-2-furyl)-methylthio]ethylamino}-1,2,5-thiadiazole] | 0.77 µmol/kg | 
Cc1cc(CSCCNc2nsnc2N)sc1CN(C)C [Example 11, 3-Amino-4-{2-[(5-dimethylaminomethyl-4-methyl-2-thienyl)methylthio]ethylamino}-1,2,5-thiadiazole] | ~0.5 µmol/kg | 
CNC(=S)NCCCCc1cnc[nH]1 [burimamide] |  | type of antagonism at histamine H2-receptors (histamine H2-receptor): competitive antagonist
CN/C(=N/CCSCc1nc[nH]c1C)NC#N [cimetidine, reference compound] |  | ED50 (gastric acid secretion; Rattus norvegicus): 3.48 µmol/kg; therapeutic effect in treatment of peptic ulcer disease (peptic ulcer disease): effective therapeutic agent in the treatment of peptic ulcer disease
